Test results as given in US20250051347A1, “BIFUNCTIONAL CHIMERIC HETEROCYCLIC COMPOUND AND USE THEREOF AS ANDROGEN RECEPTOR DEGRADER” (Hinova Pharmaceuticals, Inc., priority 2021, published 2025).

target: T1, androgen receptor (AR) splicing variant AR-v7 (Homo sapiens, UniProt P10275); experiment: Degradation activity on androgen receptor splicing variant AR-v7 in 22RV1 cells (ELISA); assay type: cell-based; settings: AR-v7 degradation in 22RV1 cells, 48 h, class symbols
T1 construct: The degradation activity of compounds on AR-v7 in 22RV1 cells; host or cells: 22RV1 cells
T1 sequence (P10275 1-644 isoform P10275-3): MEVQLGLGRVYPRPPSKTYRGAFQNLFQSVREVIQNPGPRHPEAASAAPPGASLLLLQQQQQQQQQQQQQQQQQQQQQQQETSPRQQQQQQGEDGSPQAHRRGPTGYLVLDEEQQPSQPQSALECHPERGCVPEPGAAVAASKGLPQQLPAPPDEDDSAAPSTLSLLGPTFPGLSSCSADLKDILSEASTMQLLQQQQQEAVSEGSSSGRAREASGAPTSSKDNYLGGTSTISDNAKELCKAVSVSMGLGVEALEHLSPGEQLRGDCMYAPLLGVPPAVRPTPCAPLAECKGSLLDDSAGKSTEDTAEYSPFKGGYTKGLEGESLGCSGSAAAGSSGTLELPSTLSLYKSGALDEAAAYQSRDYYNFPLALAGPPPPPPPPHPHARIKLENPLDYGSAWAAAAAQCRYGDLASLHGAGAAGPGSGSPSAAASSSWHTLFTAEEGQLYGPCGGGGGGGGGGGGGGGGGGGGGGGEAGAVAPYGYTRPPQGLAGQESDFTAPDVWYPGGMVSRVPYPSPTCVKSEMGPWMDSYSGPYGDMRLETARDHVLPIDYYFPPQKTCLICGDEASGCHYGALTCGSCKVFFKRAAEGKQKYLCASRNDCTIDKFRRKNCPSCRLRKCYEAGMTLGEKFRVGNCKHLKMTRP

SMILES	DC50
CC(O)c1nccc(COc2ccc(C(C)(C)c3ccc(O[C@H]4CC[C@H](Nc5ccc6c(c5)C(=O)N(C5CCC(=O)NC5=O)C6=O)CC4)cc3)cc2)n1 (some centres unmarked) [Example 354, 2-(2,6-dioxopiperidin-3-yl)-5-(((1r,4r)-4-(4-(2-(4-((2-(1-hydroxylethyl)pyrimidin-4-yl)methoxy)phenyl)isopropan-2-yl)phenoxy)cyclohexyl)amino)isoindolin-1,3-dione]	1000 to 5000 nM
CC(C)(c1ccc(OCc2ccnc(OC3CCOCC3)n2)cc1)c1ccc(O[C@H]2C[C@H](Nc3ccc4c(c3)C(=O)N(C3CCC(=O)NC3=O)C4=O)C2)cc1 (some centres unmarked) [Example 368, 2-(2,6-dioxopiperidin-3-yl)-5-(((1r,3r)-3-(4-(2-(4-((2-((tetrahydro-2H-pyran-4-yl)oxy)pyrimidin-4-yl)methoxy)phenyl)isopropan-2-yl)phenoxy)cyclobutyl)amino)isoindolin-1,3-dione]	11 to 100 nM
O=C1CCC(N2C(=O)c3ccc(N[C@H]4C[C@H](Oc5ccc(C6(c7ccc(Oc8ccc(-n9nccn9)nn8)cc7)CC6)cc5)C4)cc3C2=O)C(=O)N1 (some centres unmarked) [Example 374, 5-(((1r,3r)-3-(4-(1-(4-((6-(2H-1,2,3-triazole-2-yl)pyridazine-3-yl)oxy)phenyl)cyclopropyl)phenoxy)cyclobutyl)amino)-2-(2,6-dioxopiperidin-3-yl)isoindolin-1,3-dione]	11 to 100 nM
O=C1CCC(N2C(=O)c3ccc(N[C@H]4C[C@H](Oc5ccc(C6(c7ccc(Oc8ccc(-n9ccnn9)nn8)cc7)CC6)cc5)C4)cc3C2=O)C(=O)N1 (some centres unmarked) [Example 375, 5-(((1r,3r)-3-(4-(1-(4-((6-(1H-1,2,3-triazole-1-yl)pyridazine-3-yl)oxy)phenyl)cyclopropyl)phenoxy)cyclobutyl)amino)-2-(2,6-dioxopiperidin-3-yl)isoindolin-1,3-dione]	11 to 100 nM
Cc1nc(-c2ccc(Oc3ccc(C4(c5ccc(O[C@H]6C[C@H](Nc7ccc8c(c7)C(=O)N(C7CCC(=O)NC7=O)C8=O)C6)cc5)CC4)cc3)nn2)no1 (some centres unmarked) [Example 376, 2-(2,6-dioxopiperidin-3-yl)-5-(((1r,3r)-3-(4-(1-(4-((6-(5-methyl-1,2,4-oxadiazol-3-yl)pyridazine-3-yl)oxy)phenyl)cyclopropyl)phenoxy)cyclobutyl)amino)isoindolin-1,3-dione]	11 to 100 nM
CCOC(=O)c1ncc(Oc2ccc(C(C)(C)c3ccc(O[C@H]4C[C@H](Nc5ccc6c(c5)C(=O)N(C5CCC(=O)NC5=O)C6=O)C4)cc3)cc2)cn1 (some centres unmarked) [Example 381, ethyl 5-(4-(2-(4-((1r,3r)-3-((2-(2,6-dioxopiperidin-3-yl)-1,3-dioxoisoindolin-5-yl)amino)cyclobutyloxy)phenyl)isopropan-2-yl)phenoxy)pyrimidin-2-carboxylate]	11 to 100 nM
CC(=O)c1nccc(COc2ccc(C(C)(C)c3ccc(OCCCCCCCCCNc4cccc5c4C(=O)N(C4CCC(=O)NC4=O)C5=O)cc3)cc2)n1 (centres unmarked) [Example 386, 4-((9-(4-(2-(4-((2-acetylpyrimidin-4-yl)methoxy)phenyl)propan-2-yl)phenoxy)nonyl)amino)-2-(2,6-dioxopyridin-3-yl)isoindol-1,3-dione]	1000 to 5000 nM
CC(C)(c1ccc(OCCCNc2ccc3c(c2)C(=O)N(C2CCC(=O)NC2=O)C3=O)cc1)c1ccc(OCc2ccnc(-n3cccn3)n2)cc1 (centres unmarked) [Example 387, 5-((3-(4-(2-(4-((2-(1H-pyrazol-1-yl)pyrimidin-4-yl)methoxy)phenyl)propan-2-yl)phenoxy)propyl)amino)-2-(2,6-dioxopiperidin-3-yl)isoindol-1,3-dione]	11 to 100 nM
CC(C)(c1ccc(OCCCNc2ccc3c(c2)C(=O)N(C2CCC(=O)NC2=O)C3=O)cc1)c1ccc(OCc2nc(C(N)=O)co2)cc1 (centres unmarked) [Example 388]	11 to 100 nM
CC(C)(c1ccc(OCc2ccnc(N3CCOCC3)n2)cc1)c1ccc(OC2CC(Nc3ccc4c(c3)C(=O)N(C3CCC(=O)NC3=O)C4=O)C2)cc1 (centres unmarked) [Example 394]	11 to 100 nM
CN[C@@H]1CCCN(c2nccc(COc3ccc(C(C)(C)c4ccc(O[C@H]5C[C@@H](Nc6ccc7c(c6)C(=O)N(C6CCC(=O)NC6=O)C7=O)C5)cc4)cc3)n2)C1 (some centres unmarked) [Example 401]	11 to 100 nM
CN(C)[C@@H]1CCCN(c2nccc(COc3ccc(C(C)(C)c4ccc(O[C@H]5C[C@@H](Nc6ccc7c(c6)C(=O)N(C6CCC(=O)NC6=O)C7=O)C5)cc4)cc3)n2)C1 (some centres unmarked) [Example 402]	11 to 100 nM
CN[C@H]1CCCN(c2nccc(COc3ccc(C(C)(C)c4ccc(O[C@H]5C[C@@H](Nc6ccc7c(c6)C(=O)N(C6CCC(=O)NC6=O)C7=O)C5)cc4)cc3)n2)C1 (some centres unmarked) [Example 403]	11 to 100 nM
CN(C)C1CCCN(c2nccc(COc3ccc(C(C)(C)c4ccc(O[C@H]5C[C@@H](Nc6ccc7c(c6)C(=O)N(C6CCC(=O)NC6=O)C7=O)C5)cc4)cc3)n2)C1 (some centres unmarked) [Example 404]	11 to 100 nM
CN1CC(Oc2nccc(COc3ccc(C(C)(C)c4ccc(O[C@H]5C[C@@H](Nc6ccc7c(c6)C(=O)N(C6CCC(=O)NC6=O)C7=O)C5)cc4)cc3)n2)C1 (some centres unmarked) [Example 407]	11 to 100 nM
C[C@@H]1CN(c2nccc(COc3ccc(C(C)(C)c4ccc(O[C@H]5C[C@@H](Nc6ccc7c(c6)C(=O)N(C6CCC(=O)NC6=O)C7=O)C5)cc4)cc3)n2)[C@H](C)CN1 (some centres unmarked) [Example 408]	11 to 100 nM
C[C@@H]1CN(c2nccc(COc3ccc(C(C)(C)c4ccc(O[C@H]5C[C@@H](Nc6ccc7c(c6)C(=O)N(C6CCC(=O)NC6=O)C7=O)C5)cc4)cc3)n2)[C@H](C)CN1C (some centres unmarked) [Example 409]	11 to 100 nM
C[C@@H]1CN[C@@H](C)CN1c1nccc(COc2ccc(C(C)(C)c3ccc(O[C@H]4C[C@@H](Nc5ccc6c(c5)C(=O)N(C5CCC(=O)NC5=O)C6=O)C4)cc3)cc2)n1 (some centres unmarked) [Example 411]	11 to 100 nM
C[C@@H]1CN(C)[C@@H](C)CN1c1nccc(COc2ccc(C(C)(C)c3ccc(O[C@H]4C[C@@H](Nc5ccc6c(c5)C(=O)N(C5CCC(=O)NC5=O)C6=O)C4)cc3)cc2)n1 (some centres unmarked) [Example 412]	11 to 100 nM
Cn1nccc1-c1nccc(COc2ccc(C(C)(C)c3ccc(O[C@H]4C[C@@H](Nc5ccc6c(c5)C(=O)N(C5CCC(=O)NC5=O)C6=O)C4)cc3)cc2)n1 (some centres unmarked) [Example 417]	11 to 100 nM
Cn1cc(-c2cccc(COc3ccc(C(C)(C)c4ccc(O[C@H]5C[C@@H](Nc6ccc7c(c6)C(=O)N(C6CCC(=O)NC6=O)C7=O)C5)cc4)cc3)n2)cn1 (some centres unmarked) [Example 418]	11 to 100 nM
Cc1nc(-c2cccc(Oc3ccc(C(C)(C)c4ccc(O[C@H]5C[C@@H](Nc6ccc7c(c6)C(=O)N(C6CCC(=O)NC6=O)C7=O)C5)cc4)cc3)n2)no1 (some centres unmarked) [Example 422]	11 to 100 nM
CC(C)(c1ccc(Oc2ccc(N3CC(N4CC(F)(F)C4)C3)nn2)cc1)c1ccc(O[C@H]2C[C@H](Nc3ccc4c(c3)C(=O)N(C3CCC(=O)NC3=O)C4=O)C2)cc1 (some centres unmarked) [Example 424]	11 to 100 nM
C[C@@H]1CN(c2nccc(COc3ccc(C(C)(C)c4ccc(O[C@H]5C[C@@H](Nc6ccc7c(c6)C(=O)N(C6CCC(=O)NC6=O)C7=O)C5)cc4)cc3)n2)C[C@H](C)N1 (some centres unmarked) [Example 433, 5-(((1s,3s)-3-(4-(2-(4-((2-((3s,5r)-3,5-dimethylpiperazin-1-yl)pyrimidin-4-yl)methoxy)phenyl)propan-2-yl)phenoxy)cyclobutyl)amino)-2-(2,6-dioxopiperidin-3-yl)isoindolin-1,3-dione]	11 to 100 nM
CC(C)(c1ccc(OCCCNc2cccc3c2C(=O)N(C2CCC(=O)NC2=O)C3=O)cc1)c1ccc(OCc2cnc(N3CCOCC3)s2)cc1 (centres unmarked) [Example 435, 2-(2,6-dioxopiperidin-3-yl)-4-((3-(4-(2-(4-((2-morpholinethiazol-5-yl)methoxy)phenyl)propan-2-yl)phenoxy)propyl)amino)isoindolin-1,3-dione]	1000 to 5000 nM
CCC(CC)(c1ccc(OCCCNc2ccc3c(c2)C(=O)N(C2CCC(=O)NC2=O)C3=O)cc1)c1ccc(OCc2ccnc(C(C)=O)n2)cc1 (centres unmarked) [Example 439, 5-((3-(4-(3-(4-((2-acetylpyrimidin-4-yl)methoxy)phenyl)pentan-3-yl)phenoxy)propyl)amino)-2-(2,6-dioxopiperidine-3-amino)isoindolin-1,3-dione]	11 to 100 nM

same assay, conditions: AR-v7 degradation in 22RV1 cells, 48 h, numeric values

SMILES	DC50
CN1CCC2(CCN(c3nccc(COc4ccc(C(C)(C)c5ccc(OCCCCCCCCOCCCCNc6ccc7c(c6)C(=O)N(C6CCC(=O)NC6=O)C7=O)cc5)cc4)n3)C2)C1 (centres unmarked) [Example 384]	> 5000 nM
CC(=O)c1ncc(COc2ccc(C(C)(C)c3ccc(OCCCCCCCCOCCCCNc4ccc5c(c4)C(=O)N(C4CCC(=O)NC4=O)C5=O)cc3)cc2)cn1 (centres unmarked) [Example 385, 5-((4-((8-(4-(2-(4-((2-acetylpyrimidin-5-yl)methoxy)phenyl)propan-2-yl)phenoxy)octyl)oxy)butyl)amino)-2-(2,6-dioxopiperidin-3-yl)isoindol-1,3-dione]	> 2000 nM
CC(C)(c1ccc(OCCCCCCCCOCCCCNc2ccc3c(c2)C(=O)N(C2CCC(=O)NC2=O)C3=O)cc1)c1ccc(OCc2ccnc(-n3cccn3)n2)cc1 (centres unmarked) [Example 437, 5-((4-((8-(4-(2-(4-((2-(1H-pyrazol-1-yl)pyrimidin-4-yl)methoxy)phenyl)propan-2-yl)phenoxy)octyl)oxy)butyl)amino)-2-(2,6-dioxopiperidin-3-yl)isoindolin-1,3-dione]	> 10000 nM
